Experimental data reported in patent US20100267561A1, “HERBICIDAL PYRIDAZINONE DERIVATIVES” (priority 2007, published 2010).

What was measured:
Test in all cases: Test B pre-/postemergence plant response
Type in all cases: in vivo
corn (Zea mays) = conditions: for Corn plant response rating: 8 g ai/ha
Summary of the method: (§1)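 Seeds were sown and sprayed preemergence, while plants at 2 to 18 cm (1- to 4-leaf stage) got postemergence sprays. Compounds were formulated in a non-phytotoxic solvent mixture with surfactant. After 13 to 15 days in a greenhouse, injury was rated visually against untreated controls, 0 (no effect) to 100 (complete control).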

[1] = system: catchweed bedstraw (Galium aparine); conditions: Preemergence
Summary of the method: as §1

[2] = system: common ragweed (Ambrosia elation); conditions: for Ragweed plant response rating: 8 g ai/ha
Summary of the method: as §1

[3] = system: goosegrass (Eleusine indica); conditions: for Goosegrass plant response rating: 8 g ai/ha
Summary of the method: as §1

[4] = system: velvetleaf (Abutilon theophrasti); conditions: for Velvetleaf plant response rating: 8 g ai/ha
Summary of the method: as §1

kochia (Kochia scoparia) = conditions: for Kochia plant response rating: 8 g ai/ha
Summary of the method: as §1

[5] = system: woolly cupgrass (Eriochloa villosa); conditions: for Cupgrass, Woolly plant response rating: 8 g ai/ha
Summary of the method: as §1

[6] = system: Russian thistle (Salsola iberica); conditions: Preemergence
Summary of the method: as §1

[7] = system: johnsongrass (Sorghum halepense); conditions: for Johnsongrass plant response rating: 8 g ai/ha
Summary of the method: as §1

[8] = system: large crabgrass (Digitaria sanguinalis); conditions: for Crabgrass, Large plant response rating: 8 g ai/ha
Summary of the method: as §1

[9] = system: blackgrass (Alopecurus myosuroides); conditions: for Blackgrass plant response rating: 8 g ai/ha
Summary of the method: as §1

wild oat (Avena fatua) = conditions: for Oat, Wild plant response rating: 8 g ai/ha
Summary of the method: as §1

[10] = system: cocklebur (Xanthium strumarium); conditions: for Cocklebur plant response rating: 8 g ai/ha
Summary of the method: as §1

[11] = system: yellow nutsedge (Cyperus esculentus); conditions: for Nutsedge, Yellow plant response rating: 8 g ai/ha
Summary of the method: as §1

[12] = Postemergence, 16 g ai/ha, scale 0 to 100
[13] = Postemergence, 31 g ai/ha, scale 0 to 100, 0 no effect, 100 complete control
[14] = Preemergence, 16 g ai/ha, scale 0 to 100 (0 no effect, 100 complete control)
[15] = Preemergence, 31 g ai/ha, 0 to 100 scale, 0 no effect, 100 complete control
[16] = Preemergence, 62 g ai/ha, scale 0 to 100
[17] = 16 g ai/ha, scale 0 to 100 (0 no effect, 100 complete control)
[18] = 31 g ai/ha, 0 to 100 scale, 0 no effect, 100 complete control
[19] = Postemergence, 62 g ai/ha, scale 0 to 100

SMILES: CCc1cc(-c2ccc(F)cc2)nn1-c1c(O)cnn(C)c1=O [Compound 25]
- Corn plant response rating (corn (Zea mays); postemergence, 0-100 scale): 0
- Plant response rating, Corn (corn (Zea mays); [12]): 50
- Plant response rating, Corn (corn (Zea mays); [13]): 95
- Plant response rating, Corn (corn (Zea mays); [14]): 5
- Plant response rating, Corn (corn (Zea mays); [15]): 50
- Plant response rating, Corn (corn (Zea mays); [16]): 75
- Corn plant response rating (corn (Zea mays); Preemergence, scale 0 to 100): 0
- Plant response rating, Galium [1, 17]: 0
- Plant response rating, Galium [1, 18]: 0
- Plant response rating, Galium ([1]; 62 g ai/ha, scale 0 to 100): 0
- Galium plant response rating ([1]; 8 g ai/ha, scale 0 to 100): 0
- Ragweed plant response rating ([2]; postemergence, 0-100 scale): 0
- Plant response rating, Ragweed [2, 12]: 0
- Plant response rating, Ragweed [2, 13]: 0
- Plant response rating, Ragweed [2, 19]: 0
- Plant response rating, Ragweed [2, 14]: 0
- Plant response rating, Ragweed [2, 15]: 0
- Plant response rating, Ragweed [2, 16]: 0
- Ragweed plant response rating ([2]; Preemergence, scale 0 to 100): 0
- Goosegrass plant response rating ([3]; postemergence, 0-100 scale): 0
- Plant response rating, Goosegrass [3, 12]: 0
- Plant response rating, Goosegrass [3, 13]: 0
- Plant response rating, Goosegrass [3, 19]: 50
- Plant response rating, Goosegrass [3, 14]: 50
- Plant response rating, Goosegrass [3, 15]: 75
- Plant response rating, Goosegrass [3, 16]: 85
- Goosegrass plant response rating ([3]; Preemergence, scale 0 to 100): 0
- Velvetleaf plant response rating ([4]; postemergence, 0-100 scale): 0
- Plant response rating, Velvetleaf [4, 12]: 0
- Plant response rating, Velvetleaf [4, 13]: 0
- Plant response rating, Velvetleaf [4, 19]: 0
- Plant response rating, Velvetleaf [4, 14]: 0
- Plant response rating, Velvetleaf [4, 15]: 0
- Plant response rating, Velvetleaf [4, 16]: 0
- Velvetleaf plant response rating ([4]; Preemergence, scale 0 to 100): 0
- Kochia plant response rating (kochia (Kochia scoparia); postemergence, 0-100 scale): 0
- Plant response rating, Kochia (kochia (Kochia scoparia); [12]): 0
- Plant response rating, Kochia (kochia (Kochia scoparia); [13]): 0
- Plant response rating, Kochia (kochia (Kochia scoparia); [19]): 0
- Plant response rating, Kochia (kochia (Kochia scoparia); [14]): 0
- Plant response rating, Kochia (kochia (Kochia scoparia); [16]): 50
- Kochia plant response rating (kochia (Kochia scoparia); Preemergence, scale 0 to 100): 0
- Cupgrass, Woolly plant response rating ([5]; postemergence, 0-100 scale): 60
- Plant response rating, Cupgrass, Woolly [5, 12]: 80
- Plant response rating, Cupgrass, Woolly [5, 13]: 85
- Plant response rating, Cupgrass, Woolly [5, 19]: 100
- Plant response rating, Cupgrass, Woolly [5, 14]: 40
- Plant response rating, Cupgrass, Woolly [5, 15]: 80
- Plant response rating, Cupgrass, Woolly [5, 16]: 80
- Cupgrass, Woolly plant response rating ([5]; Preemergence, scale 0 to 100): 0
- Plant response rating, Russian Thistle [6, 17]: 0
- Plant response rating, Russian Thistle [6, 18]: 0
- Plant response rating, Russian Thistle ([6]; 62 g ai/ha, scale 0 to 100): 0
- Russian Thistle plant response rating ([6]; 8 g ai/ha, scale 0 to 100): 0
- Johnsongrass plant response rating ([7]; postemergence, 0-100 scale): 0
- Plant response rating, Johnsongrass [7, 12]: 0
- Plant response rating, Johnsongrass [7, 13]: 0
- Plant response rating, Johnsongrass [7, 19]: 30
- Plant response rating, Johnsongrass [7, 14]: 0
- Plant response rating, Johnsongrass [7, 15]: 0
- Plant response rating, Johnsongrass [7, 16]: 0
- Johnsongrass plant response rating ([7]; Preemergence, scale 0 to 100): 0
- Crabgrass, Large plant response rating ([8]; postemergence, 0-100 scale): 5
- Plant response rating, Crabgrass, Large [8, 12]: 60
- Plant response rating, Crabgrass, Large [8, 13]: 75
- Plant response rating, Crabgrass, Large [8, 19]: 80
- Plant response rating, Crabgrass, Large [8, 14]: 20
- Plant response rating, Crabgrass, Large [8, 15]: 60
- Plant response rating, Crabgrass, Large [8, 16]: 80
- Crabgrass, Large plant response rating ([8]; Preemergence, scale 0 to 100): 0
- Blackgrass plant response rating ([9]; postemergence, 0-100 scale): 0
- Plant response rating, Blackgrass [9, 12]: 40
- Plant response rating, Blackgrass [9, 13]: 75
- Plant response rating, Blackgrass [9, 19]: 95
- Plant response rating, Blackgrass [9, 16]: 90
- Blackgrass plant response rating ([9]; Preemergence, scale 0 to 100): 70
- Oat, Wild plant response rating (wild oat (Avena fatua); postemergence, 0-100 scale): 25
- Plant response rating, Oat, Wild (wild oat (Avena fatua); [12]): 55
- Plant response rating, Oat, Wild (wild oat (Avena fatua); [13]): 70
- Plant response rating, Oat, Wild (wild oat (Avena fatua); [19]): 95
- Plant response rating, Oat, Wild (wild oat (Avena fatua); [14]): 0
- Plant response rating, Oat, Wild (wild oat (Avena fatua); [15]): 0
- Plant response rating, Oat, Wild (wild oat (Avena fatua); [16]): 60
- Oat, Wild plant response rating (wild oat (Avena fatua); Preemergence, scale 0 to 100): 0
- Cocklebur plant response rating ([10]; postemergence, 0-100 scale): 0
- Plant response rating, Cocklebur [10, 12]: 0
- Plant response rating, Cocklebur [10, 13]: 0
- Plant response rating, Cocklebur [10, 19]: 0
- Plant response rating, Cocklebur [10, 14]: 0
- Plant response rating, Cocklebur [10, 15]: 0
- Plant response rating, Cocklebur [10, 16]: 0
- Cocklebur plant response rating ([10]; Preemergence, scale 0 to 100): 0
- Nutsedge, Yellow plant response rating ([11]; postemergence, 0-100 scale): 0
- Plant response rating, Nutsedge, Yellow [11, 12]: 0
- Plant response rating, Nutsedge, Yellow [11, 13]: 0
- Plant response rating, Nutsedge, Yellow [11, 19]: 0
- Plant response rating, Nutsedge, Yellow [11, 14]: 0
- Plant response rating, Nutsedge, Yellow [11, 15]: 0
- Plant response rating, Nutsedge, Yellow [11, 16]: 0
- Nutsedge, Yellow plant response rating ([11]; Preemergence, scale 0 to 100): 0
